pIC50: −log10 of the molar value. Several values for one entry are separate records, joined by “and”; a condition that tells them apart may be missing. Equal entries are not always repeated. Structures can show the parent of a compound that is named as a salt.
These compounds were tested against MK-2 (Homo sapiens, UniProt P49137) (assay: Determination of MK-2 IC50 (phosphorylation of HSP-peptide, anion exchange resin capture assay)). Conditions: additional values are replicate IC50 experiments; mixture of stereoisomers implied unless otherwise noted; read-out: MK-2 Avg. IC50.
MK-2, sequence (P49137 whole entry, species assumed): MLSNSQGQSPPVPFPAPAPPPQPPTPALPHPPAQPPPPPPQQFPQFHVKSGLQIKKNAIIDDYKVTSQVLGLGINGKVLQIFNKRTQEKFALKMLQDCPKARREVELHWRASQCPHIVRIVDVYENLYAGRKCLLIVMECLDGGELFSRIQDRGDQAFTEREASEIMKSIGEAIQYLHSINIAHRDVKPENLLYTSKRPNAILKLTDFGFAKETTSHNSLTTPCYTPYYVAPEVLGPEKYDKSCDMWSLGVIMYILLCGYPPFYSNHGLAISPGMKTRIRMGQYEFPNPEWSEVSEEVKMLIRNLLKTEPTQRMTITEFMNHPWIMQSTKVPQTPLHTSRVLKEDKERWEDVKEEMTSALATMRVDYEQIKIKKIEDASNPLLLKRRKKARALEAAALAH
Format: biochemical

pIC50 | SMILES
4.55 | O=C(O)C1NCCc2c1[nH]c1ccc(OCCc3ccccc3)cc21 (stereo not drawn) [Example 87, 6-(2-phenylethoxy)-2,3,4,9-tetrahydro-1H-beta-carboline-1-carboxylic acid hydrochloride]
< 3.70 | COC(=O)C1c2c(c3cc(OC)ccc3n2CO)CCN1C (stereo not drawn) [Example 169, methyl 9-(hydroxymethyl)-6-methoxy-2-methyl-2,3,4,9-tetrahydro-1H-beta-carboline-1-carboxylate]
< 3.70 | COc1ccc2[nH]c3c(c2c1)CCN1C3C(=O)NC1(C)C (centres unmarked) [Example 180, 8-methoxy-3,3-dimethyl-2,3,5,6,11,11b-hexahydro-1H-imidazo[1′,5′:1,2]pyrido[3,4-b]indol-1-one]
< 3.70 | COc1ccc2[nH]c3c(c2c1)CCNC3(C)C(=O)O (stereo not drawn) [Example 237, 6-methoxy-1-methyl-2,3,4,9-tetrahydro-1H-beta-carboline-1-carboxylic acid hydrochloride]
< 3.70 | O=C1NCCc2c1[nH]c1ccc(F)cc21 [Example 261, 1H-Pyrido[3,4-b]indol-1-one,6-fluoro-2,3,4,9-tetrahydro- or 6-fluoro-2,3,4,9-tetrahydro-1H-beta-carbolin-1-one or 1h-Pyrido[3,4-B]Indol-1-One,6-Fluoro-2,3,4,9-Tetrahydro-]
< 3.70 | O=C1NCCc2c1[nH]c1c(Cl)ccc(Cl)c21 [Example 252, 5,8-dichloro-2,3,4,9-tetrahydro-1H-beta-carbolin-1-one]
< 3.70 | COc1ccc2[nH]c3c(c2c1)CCNC3[C@H](O)CO (stereo partly drawn) [Example 239, (1S)-1-(6-methoxy-2,3,4,9-tetrahydro-1H-beta-carbolin-1-yl)ethane-1,2-diol trifluoroacetate]
4.04 | O=C(O)C1NCCc2c1[nH]c1ccc(OCc3ccc4ccccc4c3)cc21 (stereo not drawn) [Example 127, 6-(2-naphthylmethoxy)-2,3,4,9-tetrahydro-1H-beta-carboline-1-carboxylic acid hydrochloride]
< 3.70 | COC(=O)C12CCC(=O)N1CCc1c2[nH]c2ccc(OC)cc12 (centres unmarked) [Example 162, methyl 8-methoxy-3-oxo-2,3,6,11-tetrahydro-1H-indolizino[8,7-b]indole-11b(5H)-carboxylate]
4.31 | O=C1NCCc2c1[nH]c1ccc(O)cc21 [Example 108, 6-hydroxy-2,3,4,9-tetrahydro-1H-beta-carbolin-1-one]
< 3.70 | Cc1ccc2[nH]c3c(c2c1)CCNC3C(=O)O (stereo not drawn) [Example 216, 6-methyl-2,3,4,9-tetrahydro-1H-beta-carboline-1-carboxylic acid hydrochloride]
4.15 | COc1ccc2[nH]c3c(c2c1)C(Cc1cccc(C(F)(F)F)c1)CNC3C(=O)O (stereo not drawn) [Example 118, 6-methoxy-4-[3-(trifluoromethyl)benzyl]-2,3,4,9-tetrahydro-1H-beta-carboline-1-carboxylic acid]
4.00 | COc1cc2[nH]c3c(c2cc1OC)CCCC3=NO [Example 131, 6,7-dimethoxy-2,3,4,9-tetrahydro-1H-carbazol-1-one oxime]
3.98 | CCOC(=O)c1ccc(COc2ccc3[nH]c4c(c3c2)CCNC4C(=O)O)o1 (stereo not drawn) [Example 133, 6-{[5-(ethoxycarbonyl)-2-furyl]methoxy}-2,3,4,9-tetrahydro-1H-beta-carboline-1-carboxylic acid]
5.32 and 5.30 | CN1CCc2c([nH]c3ccc(OCc4ccccc4)cc23)C1C(=O)O (stereo not drawn) [Example 36, sodium 6-(benzyloxy)-2-methyl-2,3,4,9-tetrahydro-1H-beta-carboline-1-carboxylate]
< 3.70 | COc1ccc2[nH]c3c(c2c1)CCNC3CN (stereo not drawn) [Example 230, 1-(6-methoxy-2,3,4,9-tetrahydro-1H-beta-carbolin-1-yl)methanamine trifluoroacetate hydrate]
< 3.70 | COc1ccc2[nH]c3c(c2c1)CCNC3(CC(=O)O)C(=O)O (stereo not drawn) [Example 226, 1-(carboxymethyl)-6-methoxy-2,3,4,9-tetrahydro-1H-beta-carboline-1-carboxylic acid]
< 3.70 | O=C1NCCc2c1[nH]c1cccc(C(=O)N3CCOCC3)c21 [Example 251, 5-(morphoiln-4-ylcarbonyl)-2,3,4,9-tetrahydro-1H-beta-carbolin-1-one]
< 3.70 | COc1ccc2[nH]c3c(c2c1)CCNC3(CCCC(=O)O)C(=O)O (stereo not drawn) [Example 179, 1-(3-carboxypropyl)-6-methoxy-2,3,4,9-tetrahydro-1H-beta-carboline-1-carboxylic acid]
< 3.70 | COC(=O)CC1NCCc2c1[nH]c1ccc(OC)cc21 (stereo not drawn) [Example 167, methyl(6-methoxy-2,3,4,9-tetrahydro-1H-beta-carbolin-1-yl)acetate]
4.14 | COC(=O)c1ccc(COc2ccc3[nH]c4c(c3c2)CCNC4C(=O)O)cc1 (stereo not drawn) [Example 119, 6-{[4-(methoxycarbonyl)benzyl]oxy}-2,3,4,9-tetrahydro-1H-beta-carboline-1-carboxylic acid hydrochloride]
< 3.70 | NNC(=O)c1cccc2[nH]c3c(c12)CCNC3C(=O)O (stereo not drawn) [Example 200, 5-(hydrazinocarbonyl)-2,3,4,9-tetrahydro-1H-beta-carboline-1-carboxylic acid trifluoroacetate]
4.50 | COc1ccc2[nH]c3c(=O)[nH]ccc3c2c1 [Example 95, 6-methoxy-2,9-dihydro-1H-beta-carbolin-1-one]
4.08 and 4.06 | Cc1ccc2[nH]c3c(c2c1)CCC/C3=N\O [Example 123, 6-methyl-2,3,4,9-tetrahydro-1H-carbazol-1-one oxime]
< 3.70 | COc1ccc2[nH]c3c(c2c1)CCN1C(=O)CCC31C(=O)O (centres unmarked) [Example 163, 8-methoxy-3-oxo-2,3,6,11-tetrahydro-1H-indolizino[8,7-b]indole-11b(5H)-carboxylic acid]
< 3.70 | COC1=C(C#N)Cc2c([nH]c3ccc(OC)cc23)C(=O)N1 [Example 269, 3,7-dimethoxy-1-oxo-1,2,5,10-tetrahydroazepino[3,4-b]indole-4-carbonitrile]
< 3.70 | COc1ccc2[nH]c3c(c2c1)C1CCCCC1NC3C(=O)O (centres unmarked) [Example 191, 10-methoxy-2,3,4,4a,5,6,7,11c-octahydro-1H-indolo[2,3-c]quinoline-6-carboxylic acid]
< 3.70 | COC(=O)C1(C)NCCc2c1[nH]c1ccccc21 (centres unmarked) [Example 212, 1h-Pyrido[3,4-B]Indole-1-Carboxylic Acid, 2,3,4,9-Tetrahydro-1-Methyl-,Methyl Ester]
3.86 | CCCC1Cc2c([nH]c3ccc(OC)cc23)C(C(=O)O)N1 (stereo not drawn) [Example 148, 6-methoxy-3-propyl-2,3,4,9-tetrahydro-1H-beta-carboline-1-carboxylic acid]
< 3.70 | O=C1NCCc2c1[nH]c1ccccc21 [Example 260, 1H-Pyrido[3,4-b]indol-1-one,2,3,4,9-tetrahydro- or 2,3,4,9-tetrahydro-1H-beta-carbolin-1-one]

SMILES | pIC50
COC(=O)C1c2[nH]c3ccc(O)cc3c2CCN1C (stereo not drawn) [Example 174, methyl 6-hydroxy-2-methyl-2,3,4,9-tetrahydro-1H-beta-carboline-1-carboxylate] | < 3.70
COC(=O)C1c2[nH]c3ccc(OC)cc3c2CCN1CCNC(=O)OC(C)(C)C (stereo not drawn) [Example 195, methyl 2-{2-[(tert-butoxycarbonyl)amino]ethyl}-6-methoxy-2,3,4,9-tetrahydro-1H-beta-carboline-1-carboxylate] | < 3.70
